Where a SMILES comes first, the peptide text is derived from it. Where no end group is shown, it is not given here.
What was measured:
MCF7-Neo cells = assay: Microinjection of ANK peptide then nocodazole, mitotic arrest/apoptosis count; assay type: cell-based; conditions: MCF7-Neo5 cells, ANK peptide microinjected, nocodazole treated; versus uninjected
Method: (§1) ANK peptide interference with SNCG-BubR1 association in vivo was examined in a stable breast cancer cell line MCF7 expressing SNCG (MCF7-SNCG) and a control SNCG negative cell line (MCF7-Neo). […] Significant numbers of cells survived after treatment with the ANK peptide by microinjection in both cell lines. After microinjection, cells were treated with 0.5 μM nocodazole for 24 hours and the fraction of mitotically arrested cells was counted.
(§2) MCF7-SNCG and MCF-Neo were grown to 80% confluence, split with trypsin and seeded on a 22 mm glass coverslip treated with human fibronectin ([…]) into 60 mm diameter dishes containing cell maintenance medium for 24 hours and utilized for the experiments. In initial experiments ANK peptide (5, 10 or 100 μM) was microinjected. In all further experiment to date, ANK peptide (10 μM), together with goat IgG (1 mg/ml) and fluoroscein isothiocyanate (FITC, 5 mg/ml; Molecular Probes) into the MCF7-SNCG or MCF7-Neo cells under a 40× magnification of phase contrast microscope (Carl Zeiss Inc.) using a pressure injection system (Femtojet, Eppendorf). To exclude the possibility that microinjection might affect cell cycle and proliferation, MCF7-Neo and MCF7-SNCG were microinjected with goat IgG as a control. Injections were done at a constant flow setup by varying the injection pressure Pc between 40-70 units. The microscope stage was kept at 37° C. using thermal control device (Tempcontrol-37-2 Digital). Approximately 25-30 cells were microinjected in each experiment (n=3). Cells were quickly incubated to revive. […]
(§3) For the immunofluorescence experiments, cells were fixed in 0.5% buffered paraformaldehyde for 8 minutes at room temperature. […] Cells were scored by identifying cells containing Alexa Fluor 488 excited at 488 nm, and the emission measured at 500-535 nm; DAPI was excited at 345 nm and the emission was measured at 445 nm. […] Mitotic index was determined as described by Gupta et al. (Oncogene 2003 22:7593-7599) and Inaba et al. Breast Cancer Res. Treat. […]

MCF7-SNCG cells [1] = assay: as above; assay type: cell-based; conditions: ANK peptide microinjected, 0.5 μM nocodazole for 24 hours; versus uninjected
Method: as §1, §2, §3

MCF7-SNCG cells [2] = assay: Flow cytometry (PI cell cycle and anti-phospho-H3) after paclitaxel; assay type: cell-based; conditions: 0.5 μM paclitaxel
Method: FIG. 7A through D show expression of EGFP-ANK disrupting the SNCG-mediated inhibition of mitotic checkpoint function as measured by microscopy and flow cytometry. The bar graphs show the expression of EGFP-ANK disrupting the SNCG-mediated inhibition of mitotic checkpoint function, using (FIG. 7A) DAPI and (FIG. 7B) anti-phospho-H^3 staining. For graphs of FIGS. 7A and 7B, the cells treated with 0.5 μM paclitaxel for 18 hours or untreated control cells were fixed with 4% paraformaldehyde for 20 minutes at room temperature. In both cases, the cells were then stained with 1 μg/ml of DAPI or 2 μg/ml anti-phospho-H3 primary and Texas Red goat anti-rabbit secondary antibodies (Invitrogen). Green fluorescent cells were identified for positive transfected cells. For each sample, 200-300 cells randomly chosen from 5 different views under a Nikon fluorescent microscope were scored for interphase, mitotic, or apoptotic based upon nuclei morphology. The data shown were derived from three separate transfections (p<0.01). […]
Two days after transfection, cells were exposed to paclitaxel for 18 hours and numbers of mitotic arrested and apoptotic cells were counted after DAPI staining. […] These cells were also probed with rabbit polyclonal anti-phospho-H^3 and the mitotic index was calculated according to the proportion of the number of H^3 stained EGFP positive cells to total EGFP positive cells (FIG. 7B). […]

SNCG = SNCG (Homo sapiens, UniProt O76070); assay: Co-immunoprecipitation of EGFP-ANK with anti-SNCG antibody; assay type: binding; parameters: expressed in transfected cells; host or cells: MCF7-SNCG (MCF7 stably expressing SNCG)
SNCG, sequence (O76070 whole entry): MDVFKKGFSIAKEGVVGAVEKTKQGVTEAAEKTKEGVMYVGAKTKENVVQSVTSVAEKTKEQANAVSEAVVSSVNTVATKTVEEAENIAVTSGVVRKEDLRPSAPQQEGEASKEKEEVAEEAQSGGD

| co-precipitation with SNCG in anti-SNCG IP complexes (SNCG; MCF7-SNCG cells transfected with pEGFP-ANK, western blot with anti-GFP) | presence in anti-SNCG IP complexes (SNCG; MCF7-neo cells (SNCG negative control)) | Molecule | number of cells undergoing mitotic arrest/apoptosis (MCF7-Neo cells) | level of mitotically arrested cells (MCF7-SNCG cells [1]) | increase in positive phosphorylated histones (anti-phospho-H3 staining) (MCF7-SNCG cells [2]; versus MCF7-SNCG cells not containing EGFP-ANK) | increase in apoptotic/dead cell population (MCF7-SNCG cells [2]; cell cycle analysis, versus control vector pEGFP) |
| --- | --- | --- | --- | --- | --- | --- |
| – | – | CC[C@H](C)[C@H](NC(=O)[C@H](CS)NC(=O)CNC(=O)[C@H](CC(C)C)NC(=O)[C@H](Cc1c[nH]cn1)NC(=O)CNC(=O)[C@H](Cc1c[nH]cn1)NC(=O)[C@H](CCC(N)=O)NC(=O)[C@H](CO)NC(=O)[C@H](C)NC(=O)[C@@H](NC(=O)[C@H](Cc1c[nH]cn1)NC(=O)[C@H](CC(C)C)NC(=O)[C@H](C)NC(=O)[C@H](CO)NC(=O)[C@H](CC(N)=O)NC(=O)CNC(=O)[C@H](CCCCN)NC(C)=O)C(C)C)C(=O)N[C@@H](CCC(N)=O)C(=O)N[C@H](C(=O)N[C@@H](CC(C)C)C(=O)N[C@H](C(=O)N[C@@H](CCCNC(=N)N)C(=O)N[C@@H](Cc1ccc(O)cc1)C(=O)NCC(=O)N[C@@H](C)C(=O)N[C@@H](CC(N)=O)C(=O)N[C@H](C(=O)N[C@H](C(=O)N[C@@H](CCSC)C(=O)N[C@@H](CCC(N)=O)C(=O)N[C@@H](CC(N)=O)C(=O)N[C@@H](Cc1c[nH]cn1)C(=O)NCC(N)=O)[C@@H](C)O)C(C)C)C(C)C)[C@@H](C)O [ANK peptide] (Ac-KGNSALHVASQHGHLGCIQTLVRYGANVTMQNHG-NH2) | not significantly affected | significantly (p<0.05) increased | – | – |
| co-precipitate with SNCG | not in the IP complexes | EGFP-ANK: ANK peptide expressed as a fusion protein with its amino-terminal linked to EGFP protein, approximately 37 kDa ({EGFP}-KGNSALHVASQHGHLGCIQTLVRYGANVTMQNHG) | – | – | 3,5 fold | almost a four-fold increase |

Reference: patent US7897568B2, “Compositions for treatment of cancer” (priority 2006, dated 2011)
